Article PMC12298883, “Discovery of Cyclopentane-Based Phospholipids as Miltefosine Analogs with Superior Potency and Enhanced Selectivity Against Naegleria fowleri” (Pharmaceuticals, 2025)
Like-named read-outs stand apart in the source and are kept apart here.

Experiments:
N. fowleri trophozoites [1] = experiment: JC-1 mitochondrial membrane potential assay; type: cell-based, Naegleria fowleri; settings: at IC90, 48 h
Description: To determine whether the apoptotic death of N. fowleri induced by compounds 2a, 3b and 3d is associated with mitochondrial dysfunction, the mitochondrial membrane potential (ΔΨm) was assessed using a JC-1 assay. The potential difference across the membrane in functioning mitochondria leads to the accumulation of cationic lipophilic fluorescent JC-1 molecules, forming red fluorescence (J-aggregate). Mitochondrial dysfunction results in the loss of mitochondrial membrane potential, leading to the transition from J-aggregates to monomers (green fluorescence). […] The absence of green and strong red fluorescence in untreated amoebae indicates healthy, functional mitochondria maintaining their ΔΨm. The shift to predominantly green fluorescence upon treatment with miltefosine, as well as compounds 2a, 3b and 3d, signifies a loss of ΔΨm, a critical early event in the intrinsic apoptotic pathway (Figure 7). Disruption of ΔΨm leads to the release of pro-apoptotic factors from the mitochondria, triggering the caspase cascade and, ultimately cell death. This observation aligns with the previous finding of DNA fragmentation and membrane compromise, further solidifying the apoptotic mechanism of these compounds.
Figure 7 Disruption of mitochondrial functions in N. fowleri. Mitochondrial membrane potential changes. Aggregate form (RFP channel, Ex/Em = 550/650 nm), implying healthy mitochondria, was found in N. fowleri trophozoites treated with 0.1% DMSO (NC), while monomer (GFP channel, Ex/Em = 490/525 nm) indicating the collapse of mitochondrial membrane potential was increased in treated amoebae. Miltefosine (MF) was included as a positive control drug. Images were representatives of the cell population in three individual experiments. Size bar: 10 µm.
The electrochemical gradient changes across the mitochondrial membrane in N. fowleri upon treatment of compounds 2a, 3b and 3d were measured using the JC-1 Mitochondrial Membrane Potential Assay Kit (Abcam, Cambridge, UK). The amoeba trophozoites (5 × 10^4 cells/well) were seeded in a 96-well black/clear bottom plate and incubated with compounds 2a, 3b or 3d (IC90) at 37 °C for 48 h. The JC-1 assay was conducted as described previously. The amoebae treated with Nelson’s medium containing 0.1% DMSO and miltefosine (IC90) were used as negative and positive controls, respectively.

N. fowleri trophozoites [2] = experiment: TUNEL assay (DNA fragmentation); type: cell-based, Naegleria fowleri; settings: at IC90, 48 h; PI counterstain
Description: To further confirm the apoptotic mode of cell death induced by compounds 2a, 3b and 3d in N. fowleri, a TUNEL assay was conducted. This assay detects DNA fragmentation, a hallmark of apoptosis, by incorporating fluorescent dUTP at DNA break sites. […] This difference could reflect variations in the specific molecular pathways targeted by each compound or differences in their cellular uptake or metabolism.
Figure 6 TUNEL assay. DNA fragmentation implying apoptosis was detected by TUNEL (GFP channel, (Ex/Em = 490/525 nm) in the amoebae treated with tested compounds. These amoebae were also counterstained with PI (RFP channel, Ex/Em = 550/650 nm). Miltefosine (MF) was included as a positive reference control. NC, negative controls with 0.1% DMSO treatment. Images were representatives of the cell population in three individual experiments. Size bar: 10 µm.
N. fowleri trophozoites (2 × 10^6 cells/well) were seeded in a 6-well plate (Thermo Fisher Scientific), treated with compounds 2a, 3b or 3d (IC90) and incubated at 37 °C for 48 h. The TUNEL assay was performed by using TUNEL Fluorescein Isothiocyanate (FITC) Assay Kit (Abcam, Cambridge, UK) as described previously. N. fowleri trophozoites treated with 0.01% DMSO was used as an NC. The amoeba treated with miltefosine (IC90) were used as a positive control.

N. fowleri trophozoites [3] = experiment: Anti-amoebic viability assay (CellTiter-Blue) with microscopic observation; type: cell-based, Naegleria fowleri; settings: for Selectivity Index: CC50 of C6 glial cell divided by IC50 of inhibition of N. fowleri; for Relative Potency to Miltefosine: IC50 of miltefosine divided by IC50 of compound, N. fowleri; for IC50 / IC90: N. fowleri trophozoites, 48 h, viability; for IC50: mean ± SD of three assays, read-out: IC50 of Inhibition of N. fowleri; for IC90: mean ± SD; for morphological changes of N. fowleri (microscopy): treated trophozoites versus 0.1% DMSO negative control
Description: (§1) A viability assay was performed to evaluate the inhibitory activity of the tested compounds by determining their IC50 values against N. fowleri, using miltefosine as a reference drug. To assess the selectivity of the tested compounds relative to miltefosine, cytotoxic values that reduced the viability of C6 glial cells by 50% were established.
(§2) N. fowleri Carter NF69 strain (ATCC 30215; American Type Culture Collection, Manassas, VA, USA) was used. Amoeba trophozoites were cultured and maintained in Nelson’s medium containing 5% foetal bovine serum (FBS; Gibco, Grand Island, NY, USA) and 1% penicillin/streptomycin (P/S; Gibco, Grand Island, NY, USA) at 37 °C [56]. C6 rat glial cells (C6 cells; ATCC CCL-107) were cultured in Dulbecco’s Modified Eagle’s Medium (DMEM; Gibco, Grand Island, NY, USA) supplemented with 10% FBS (Gibco, Grand Island, NY, USA) and 1% P/S (Gibco, Grand Island, NY, USA) at 37 °C in a humidified incubator under 5% CO2 atmosphere.
N. fowleri trophozoites (5 × 10^4 cells/well) were seeded in a 96-well microplate (Thermo Fisher Scientific, Waltham, MA, USA) in Nelson’s medium and incubated at 37 °C overnight. N. fowleri trophozoites were treated with 2-fold serial dilutions of tested compounds (from 0 to 200 µM) or miltefosine (150 µM) and incubated at 37 °C for 48 h. The viability of the amoebae was determined using the CellTiter-Blue® Cell viability assay (Promega, Madison, WI, USA). Inhibitory concentration 50 (IC50) and IC90 were calculated by the nonlinear regression method using GraphPad Prism 9.1.0 software (GraphPad Software, San Diego, CA, USA). Amoebae treated with 0.1% DMSO were used as a control, representing 100% cell viability. Morphological changes of the amoebae were observed microscopically.

[4] = Cytotoxicity assay for C6 cells (CellTiter-Blue); type: cell-based; settings: rat, C6 glial cells, viability, mean ± SD
Description: as §1, §2
The potential cytotoxicity of tested compounds and miltefosine in C6 cells was analysed. The cells were seeded in a 96-well microplate (Thermo Fisher Scientific; 2 × 10^4 cells/well), respectively, and incubated overnight until 80% confluent. Serially diluted tested compounds and miltefosine were treated to the cells as described above. Morphological changes of the cells were observed by microscopic examination. Cell viability was determined using the CellTiter-Blue® Cell viability assay (Promega, […], USA). The cytotoxic concentrations 50 (CC50) of tested compounds and miltefosine were calculated using GraphPad Prism 9.1.0 software (GraphPad Software, San Diego, CA, USA). The […] (SI) was determined by the ratio between CC50 and IC50. Cells treated with 0.1% DMSO, which was confirmed not to alter the morphology of the cells by microscopic examination, were used as controls with 100% cell viability.

Structure (SMILES)	mitochondrial membrane potential (ΔΨm), JC-1 (N. fowleri trophozoites [1])	DNA fragmentation (TUNEL green fluorescence) (N. fowleri trophozoites [2])	Selectivity Index (N. fowleri trophozoites [3])	Relative Potency to Miltefosine (N. fowleri trophozoites [3])	IC50 (N. fowleri trophozoites [3])	IC50 (N. fowleri trophozoites [3]; Naegleria fowleri)	IC90 (N. fowleri trophozoites [3]; Naegleria fowleri)	CC50 [4]	fold the potency of trans-configured behenyl derivative 2d (N. fowleri trophozoites [3]; N. fowleri IC50 ratio versus compound 2d)	morphological changes of N. fowleri (microscopy) (N. fowleri trophozoites [3])
CCCCCCCCCCCCCCCCOP(=O)([O-])OCC[N+](C)(C)C [Miltefosine]	loss of ΔΨm	intense green fluorescence, confirming DNA fragmentation	~1.08	1.00 fold	146.53 ± 0.12 µM	146.44 ± 0.12 µM	> 200 µM	157.8 ± 1.49 µM	–	–
CCCCCCCCCCCCCCCCCCCCCCOC[C@@H]1CCC[C@H]1OP(=O)([O-])OCC[N+](C)(C)C [Compound 3d]	loss of ΔΨm	intense green fluorescence, confirming DNA fragmentation	3.49	6.03 fold	–	24.3 ± 1.1 µM	187 µM	84.9 ± 1.29 µM	2.29 fold	dose-dependent morphological changes
CCCCCCCCCCCCCO[C@@H]1CCC[C@H]1COP(=O)([O-])OCC[N+](C)(C)C [Compound 2a]	loss of ΔΨm	intense green fluorescence, confirming DNA fragmentation	7.53	–	–	42 ± 1.32 µM	109 µM	316.6 ± 2.1 µM	–	dose-dependent morphological changes
CCCCCCCCCCCCCOC[C@@H]1CCC[C@H]1OP(=O)([O-])OCC[N+](C)(C)C [Compound 3b]	loss of ΔΨm	intense green fluorescence, confirming DNA fragmentation	3.90	–	–	40.9 ± 1.9 µM	104 µM	159.5 ± 0.87 µM	–	dose-dependent morphological changes
